This is an account of results in patent publication US20250092039A1, “GLUTARIMIDE-CONTAINING PAN-KRAS-MUTANT DEGRADER COMPOUNDS AND USES THEREOF” (Tiger Biotherapeutics Inc., priority 2022, published 2025).

The term DC50 denotes the concentration at which degradation of the target reaches its halfway point. Low readings indicate a more potent degrader, high ones a less potent degrader. One may read the IC50 as the concentration that gives 50% inhibition. Read a high IC50 as weaker potency in that assay.

One test has as its target KRAS G12V (Homo sapiens (Human), UniProt P01116, G12V). The test can be described thus: KRAS G12V degradation in SW620 cells (Western blot, DC50). In kind it is cell-based. The settings on record: 24 hours. As to the method:
SW620 (KRAS G12V homozygous), AsPC1 (KRAS G12D homozygous), MIA PaCa2 (KRAS G12C homozygous), A549 (KRAS G12S homozygous) and MCF7 (KRAS WT) cells were obtained from American Type Culture Collection (ATCC). […] The following day, the test compound was administered to the cells by using 1000× compound stock solution prepared in DMSO at various concentrations. After administration of the compound, the cells were then incubated at 37° C. for 24 hours. Upon completion, the cells were washed with PBS and protein was collected in Laemmli sample buffer (1×; VWR International). Proteins in cell lysate were separated by SDS-PAGE and transferred to Odyssey nitrocellulose membranes (Licor) with iblot® dry blotting transfer system (ThermoFisher). Nonspecific binding was blocked by incubating membranes with Intercept Blocking Buffer (Licor) for 1 hour at room temperature with gentle shaking. […] After washing 3 times with TBS-T, the membranes were incubated with IRDye® 800CW goat anti-rabbit IgG (1:20,000, Licor) and IRDye® 680RD goat anti-mouse IgG (1:20,000, Licor) for 1 hour. After TBS-T washes, membranes were rinsed in TBS and Western blot images were acquired by Odyssey CLx (LI-COR Biosciences).
The signal intensity of target proteins was calculated using ImageStudio software. KRAS fluorescent intensity (FLU) from DMSO (vehicle) treatment was set as 100%. Relative KRAS expression level was determined by the following formula: […]
The percentage of KRAS expression was calculated using Microsoft Excel. The half-maximal degradation concentration (DCso) values were generated by GraphPad Prism (Version 9) using the dose-response equation of variable slope (four parameters).
On the technique in general: Immunoblotting shows a protein as a band on a membrane.

The target of the next test is KRAS-G12V/RAF1 (Homo sapiens (Human), UniProt P01116, G12V). The test can be described thus: KRAS/RAF1 binding inhibition assay (AlphaScreen). As for the experimental part: Binding affinity against GTP-bound KRAS of the compounds disclosed herein was measured by monitoring the interaction of guanosine 5′-[β,γ-imido]triphosphate-bound (GppNHp-bound) KRAS with the RBD domain of RAF1 in the presence of the test compound. […] The test compounds in 2% DMSO (final concentration) at various concentrations were then added to the reaction mixture and incubated for 60 minutes at 4° C.
Raw ALphaScreen data were converted to a percentage of inhibition (relative to DMSO) using the following equations: • a) For a given test compound concentration X: […]
The IC50 values were determined by nonlinear regression of plots of [inhibitor] vs. percentage of inhibition with variable slope, analyzed using GraphPad Prism (Version 9).
For orientation: Alpha assays give light when donor and acceptor beads are brought close together.

Sequence of KRAS G12V (P01116-2 other isoform, or with tags, fused parts or gaps G12V): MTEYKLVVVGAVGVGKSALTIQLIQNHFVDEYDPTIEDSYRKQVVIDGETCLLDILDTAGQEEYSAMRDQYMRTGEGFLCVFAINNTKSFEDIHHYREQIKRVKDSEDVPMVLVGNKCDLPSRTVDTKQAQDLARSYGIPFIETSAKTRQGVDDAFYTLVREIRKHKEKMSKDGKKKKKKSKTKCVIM
Sequence of KRAS-G12V/RAF1 (P01116-2 other isoform, or with tags, fused parts or gaps G12V): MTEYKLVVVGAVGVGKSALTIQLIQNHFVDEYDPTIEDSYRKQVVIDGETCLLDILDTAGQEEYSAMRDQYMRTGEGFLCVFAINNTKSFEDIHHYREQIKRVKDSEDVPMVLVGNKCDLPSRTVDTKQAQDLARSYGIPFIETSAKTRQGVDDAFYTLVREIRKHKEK

The compound `CCc1c(F)ccc2cc(O)cc(-c3ncc4c(N5CCOC[C@](C)(O)C5)nc(OCC5(CN6CCC7(CC6)CC(CN6CCN(c8ccc9c(c8)CN([C@H]8CCC(=O)NC8=O)C9=O)CC6)C7)CC5)nc4c3F)c12` [Compound 113, (S)-3-(5-(4-((7-((1-(((7-(8-ethyl-7-fluoro-3-hydroxynaphthalen-1-yl)-8-fluoro-4-((R)-6-hydroxy-6-methyl-1,4-oxazepan-4-yl)pyrido[4,3-d]pyrimidin-2-yl)oxy)methyl)cyclopropyl)methyl)-7-azaspiro[3.5]nonan-2-yl)methyl)piperazin-1-yl)-1-oxoisoindolin-2-yl)piperidine-2,6-dione] returned a DC50 on KRAS G12V of over 100 nM. Moreover, the IC50 on KRAS-G12V/RAF1 is over 200 nM.
For `CCc1cccc2cc(O)cc(-c3ncc4c(N5C[C@@H]6C[C@H](C5)[C@H](O)C6)nc(OCC5(CN6CCC7(CC6)CC(CN6CCN(c8ccc9c(c8)CN([C@H]8CCC(=O)NC8=O)C9=O)CC6)C7)CC5)nc4c3F)c12` [Compound 101, (S)-3-(5-(4-((7-((1-(((7-(8-ethyl-3-hydroxynaphthalen-1-yl)-8-fluoro-4-((1R,5R,6R)-6-hydroxy-3-azabicyclo[3.2.1]octan-3-yl)pyrido[4,3-d]pyrimidin-2-yl)oxy)methyl)cyclopropyl)methyl)-7-azaspiro[3.5]nonan-2-yl)methyl)piperazin-1-yl)-1-oxoisoindolin-2-yl)piperidine-2,6-dione], in that order: under 1 nM and over 200 nM.
On to `CCc1c(F)ccc2cc(O)cc(-c3ncc4c(N5CCCC(C)(F)C5)nc(OCC5(CN6CCC7(CC6)CC(CN6CCN(c8ccc9c(c8)CN([C@H]8CCC(=O)NC8=O)C9=O)CC6)C7)CC5)nc4c3F)c12` (stereo partly drawn) [Compound 132, (3S)-3-(5-(4-((7-((1-(((7-(8-ethyl-7-fluoro-3-hydroxynaphthalen-1-yl)-8-fluoro-4-(3-fluoro-3-methylpiperidin-1-yl)pyrido[4,3-d]pyrimidin-2-yl)oxy)methyl)cyclopropyl)methyl)-7-azaspiro[3.5]nonan-2-yl)methyl)piperazin-1-yl)-1-oxoisoindolin-2-yl)piperidine-2,6-dione], for which the DC50 on KRAS G12V is over 100 nM. Besides, on KRAS-G12V/RAF1, the IC50 was over 200 nM.
The corresponding values for `CCc1cccc2cc(O)cc(-c3ncc4c(N5CCOC[C@@](C)(O)C5)nc(OCC5(CN6CCC7(CC6)CC(CN6CCN(c8ccc9c(c8)CN([C@H]8CCC(=O)NC8=O)C9=O)CC6)C7)CC5)nc4c3F)c12` [Compound 106, (S)-3-(5-(4-((7-((1-(((7-(8-ethyl-3-hydroxynaphthalen-1-yl)-8-fluoro-4-((S)-6-hydroxy-6-methyl-1,4-oxazepan-4-yl)pyrido[4,3-d]pyrimidin-2-yl)oxy)methyl)cyclopropyl)methyl)-7-azaspiro[3.5]nonan-2-yl)methyl)piperazin-1-yl)-1-oxoisoindolin-2-yl)piperidine-2,6-dione] are 1 to 10 nM and 20 to 200 nM.
At KRAS G12V, `CCc1cccc2cc(O)cc(-c3ncc4c(N5CCCn6nc(C(=O)N(C)C)c(Cl)c6C5)nc(OCC5(CN6CCC7(CC6)CC(CN6CCN(c8ccc9c(c8)CN([C@H]8CCC(=O)NC8=O)C9=O)CC6)C7)CC5)nc4c3F)c12` [Compound 102, (S)-3-chloro-5-(2-((1-((2-((4-(2-(2,6-dioxopiperidin-3-yl)-1-oxoisoindolin-5-yl)piperazin-1-yl)methyl)-7-azaspiro[3.5]nonan-7-yl)methyl)cyclopropyl)methoxy)-7-(8-ethyl-3-hydroxynaphthalen-1-yl)-8-fluoropyrido[4,3-d]pyrimidin-4-yl)-N,N-dimethyl-5,6,7,8-tetrahydro-4H-pyrazolo[1,5-a][1,4]diazepine-2-carboxamide] displayed a DC50 of under 1 nM. The IC50 on KRAS-G12V/RAF1 was over 200 nM.
For `CCc1c(F)ccc2cc(O)cc(-c3ncc4c(N5CCC[C@]6(C5)C[C@@H](O)C6)nc(OCC5(CN6CCC7(CC6)CC(CN6CCN(c8ccc9c(c8)CN([C@H]8CCC(=O)NC8=O)C9=O)CC6)C7)CC5)nc4c3F)c12` [Compound 100, (S)-3-(5-(4-((7-((1-(((7-(8-ethyl-7-fluoro-3-hydroxynaphthalen-1-yl)-8-fluoro-4-((2r,4s)-2-hydroxy-6-azaspiro[3.5]nonan-6-yl)pyrido[4,3-d]pyrimidin-2-yl)oxy)methyl)cyclopropyl)methyl)-7-azaspiro[3.5]nonan-2-yl)methyl)piperazin-1-yl)-1-oxoisoindolin-2-yl)piperidine-2,6-dione], in that order: over 100 nM and 20 to 200 nM.
The corresponding values for `C[C@@]1(O)CCCN(c2nc(OCC3(CN4CCC5(CC4)CC(CN4CCN(c6ccc7c(c6)CN([C@H]6CCC(=O)NC6=O)C7=O)CC4)C5)CC3)nc3c(F)c(-c4cc(O)cc5ccc(F)c(F)c45)ncc23)C1` [Compound 103, (S)-3-(5-(4-((7-((1-(((7-(7,8-difluoro-3-hydroxynaphthalen-1-yl)-8-fluoro-4-((R)-3-hydroxy-3-methylpiperidin-1-yl)pyrido[4,3-d]pyrimidin-2-yl)oxy)methyl)cyclopropyl)methyl)-7-azaspiro[3.5]nonan-2-yl)methyl)piperazin-1-yl)-1-oxoisoindolin-2-yl)piperidine-2,6-dione] are under 1 nM and 20 to 200 nM.
The corresponding values for `CCc1c(F)ccc2cc(O)cc(-c3ncc4c(N5CCCn6nc(C(=O)N(C)C)c(Cl)c6C5)nc(OCC5(CN6CCC7(CC6)CC(CN6CCN(c8ccc9c(c8)CN([C@H]8CCC(=O)NC8=O)C9=O)CC6)C7)CC5)nc4c3F)c12` [Compound 94, (S)-3-chloro-5-(2-((1-((2-((4-(2-(2,6-dioxopiperidin-3-yl)-1-oxoisoindolin-5-yl)piperazin-1-yl)methyl)-7-azaspiro[3.5]nonan-7-yl)methyl)cyclopropyl)methoxy)-7-(8-ethyl-7-fluoro-3-hydroxynaphthalen-1-yl)-8-fluoropyrido[4,3-d]pyrimidin-4-yl)-N,N-dimethyl-5,6,7,8-tetrahydro-4H-pyrazolo[1,5-a][1,4]diazepine-2-carboxamide] are 1 to 10 nM and over 200 nM.
`CCc1c(F)ccc2cc(O)cc(-c3ncc4c(N5CCC[C@]6(C5)C[C@H](O)C6)nc(OCC5(CN6CCC7(CC6)CC(CN6CCN(c8ccc9c(c8)CN([C@H]8CCC(=O)NC8=O)C9=O)CC6)C7)CC5)nc4c3F)c12` [Compound 99, (S)-3-(5-(4-((7-((1-(((7-(8-ethyl-7-fluoro-3-hydroxynaphthalen-1-yl)-8-fluoro-4-((2s,4r)-2-hydroxy-6-azaspiro[3.5]nonan-6-yl)pyrido[4,3-d]pyrimidin-2-yl)oxy)methyl)cyclopropyl)methyl)-7-azaspiro[3.5]nonan-2-yl)methyl)piperazin-1-yl)-1-oxoisoindolin-2-yl)piperidine-2,6-dione] returned a DC50 at KRAS G12V of over 100 nM. Besides, the IC50 at KRAS-G12V/RAF1 was 20 to 200 nM.
For `CCc1c(F)ccc2cc(O)cc(-c3ncc4c(N5CCCC6(CC(O)C6)C5)nc(OCC5(CN6CCC7(CC6)CC(CN6CCN(c8ccc9c(c8)CN([C@H]8CCC(=O)NC8=O)C9=O)CC6)C7)CC5)nc4c3F)c12` [Compound 97, (S)-3-(5-(4-((7-((1-(((7-(8-ethyl-7-fluoro-3-hydroxynaphthalen-1-yl)-8-fluoro-4-(2-hydroxy-6-azaspiro[3.5]nonan-6-yl)pyrido[4,3-d]pyrimidin-2-yl)oxy)methyl)cyclopropyl)methyl)-7-azaspiro[3.5]nonan-2-yl)methyl)piperazin-1-yl)-1-oxoisoindolin-2-yl)piperidine-2,6-dione], in that order: over 100 nM and over 200 nM.
